Experimental data from patent publication US20100093748A1, “SUBSTITUTED PIPERIDINES HAVING PROTEIN KINASE INHIBITING ACTIVITY” (ASTEX THERAPEUTICS LIMITED, priority 2006, published 2010).

Test system: phosphorylation of Serine-9 residue in Glycogen Synthase Kinase-3beta as surrogate marker of cellular PKB (Akt) activity
Experiment: In vitro MDA-MB-468 human breast adenocarcinoma GSK-3 phosphorylation assay
Type: cell-based
Settings: MDA-MB-468, 2 h, read-out: Cell pGSK3b IC50
Description: This assay determines the ability of test compounds to inhibit phosphorylation of Serine-9 residue in Glycogen Synthase Kinase-3beta (GSK-313) as a surrogate marker of cellular PKB (Akt) activity, as assessed using Acumen Explorer Fluorescent Plate-Reader technology. A MDA-MB-468 human breast adenocarcinoma cell line (LGC Promochem, Teddington, Middlesex, UK, Catalogue No. HTB-132) was routinely maintained in Dulbecco's modified Eagle's growth medium (DMEM; Invitrogen Limited, Paisley, UK Catalogue No. 11966-025) containing 10% heat-inactivated foetal calf serum (FCS; Sigma, Poole, Dorset, UK, Catalogue No. F0392) and 1% L-glutamine (Gibco, Catalogue No. 25030-024) at 37° C. with 5% CO2 up to a confluency of 70-90%.
For the phosphorylation assay, the cells were detached from the culture flask using Trypsin-EDTA (Invitrogen Limited, Catalogue No. 25300-062) and seeded into the wells of a black transparent-bottom Corning Costar Polystyrene 96 well plate (Fisher Scientific UK, Loughborough, Leicestershire, UK; Catalogue No. 3904 and DPS-130-020K) at a density of 5000 cells per well in 100 μl of complete growth media. The cells were incubated overnight at 37° C. with 5% CO2 to allow them to adhere.
On day 2, the cells were treated with test compounds and incubated for 2 hours at 37° C. with 5% CO2. Test compounds were prepared as 10mM stock solutions in DMSO and dosed directly to required concentration into test wells using non-contact (acoustic dispensing of multiple 2.5 nl droplets directly into assay wells) ECHO dosing technology (Labcyte Inc Sunnyvale, Calif., USA). Each plate contained control wells without test compound.
20 μl of fixing buffer (Phosphate Buffered Saline (PBS) containing 10% formaldehyde; Sigma; Catalogue No. F1635) was then added to each well to give a final well concentration 1.6%. Plates were then incubated for 30 minutes at room temperature prior to the fixative being removed. Each well was washed once with 250 μl of PBS and then 50 μl PBS added to each well. PBS was then aspirated and cells permeabilised and blocked by incubating each well with 50 μl of permeabilisation/blocking buffer (PBS containing 0.5% Tween 20 (Sigma; Catalogue No. P5927) and 5% Marvel Milk Powder (Andrews Pharmacy Ltd, Macclesfield, Cheshire, UK; Catalogue No. APC100199)) for 1 hour at room temperature prior to staining.
Following removal of Perm/Block buffer, 50 μl of primary anti-phospho-GSK-3β antibody (Cell Signalling Technology (New England Biolabs (Uk) Ltd.), Hitchin, Hertfordshire, UK; Catalogue No.9336 diluted 1:400 in Blocking buffer (PBS containing 5% Marvel and 0.05% Tween/Polysorbate 20) was added to each well and incubated overnight at 4° C.
Each well was washed three times in 250 μl of wash buffer (PBS containing 0.05% polysorbate 20), and cells incubated for 1 hour at room temperature with 50 μl of secondary fluorescently-labelled anti-rabbit Alexa Fluor 488 antibody (Molecular Probes, Invitrogen Limited, Catalogue No. A11008) diluted 1:750 in blocking buffer. Plates were washed three times in 250 μl of wash buffer and stored containing 50 μl of PBS at 4° C. until required.
Plates were analysed using an Acumen Explorer Plate-reader to quantify level of fluorescent signal that represents quantity of phosphorylated-GSK-313.
IC50 calculation—IC50 is the concentration of compound required to give 50% effect over the range of activity affected by the compound, between maximum (no compound) and minimum (excess level of compound) response control data. IC50 values were determined by fitting background corrected, dose response assay data to a 4 parameter logistic curve fit equation model with the minimum response set to zero. This was done using an in-house developed algorithm within the Origin graphing software package (OriginLab Corporation, Northampton, Mass., USA). […]

Q: COc1ccc(Oc2ccc3[nH]c(C4(N)CCN(c5ncnc6[nH]cnc56)CC4)nc3c2)cc1 [Example 63, 4-(5-(4-methoxyphenoxy)-1H-benzo[d]imidazol-2-yl)-1-(9H-purin-6-yl)piperidin-4-amine] was tested. Which IC50 did it give?
A: The IC50 was over 960 nM.

Q: NC1(c2nc3cc(SC(F)(F)F)ccc3[nH]2)CCN(c2ncnc3[nH]ccc23)CC1 [Example 65, 1-(7H-Pyrrolo[2,3-d]pyrimidin-4-yl)-4-(5-(trifluoromethylthio)-1H-benzo[d]imidazol-2-yl)piperidin-4-amine] was tested. Which IC50 did it give?
A: Its IC50 is 420 nM.

Same assay, conditions: MDA-MB-468 cells, 2 hours compound incubation, mean IC50, read-out: Cell pGSK3b IC50

Q: NC1(c2nc3c(O)cccc3[nH]2)CCN(c2ncnc3[nH]ccc23)CC1 [Example 11, 2-[4-Amino-1-(7H-pyrrolo[2,3-d]pyrimidin-4-yl)-piperidin-4-yl]-1H-benzoimidazol-4-ol] was tested. Which IC50 did it give?
A: The IC50 was 160 nM.

Q: How did the IC50 turn out when NC1(c2nc3ccc(Cl)cc3[nH]2)CCN(c2ncnc3[nH]ccc23)CC1 [Example 13, 4-(6-chloro-1H-benzoimidazol-2-yl)-1-(7H-pyrrolo[2,3-d]pyrimidin-4-yl)-piperidin-4-ylamine] was run?
A: Its IC50 is 660 nM.

Q: With NC1(c2nc3ccc(Cl)cc3[nH]2)CCN(c2ncnc3[nH]cnc23)CC1 [Example 21, 4-(6-chloro-1H-benzoimidazol-2-yl)-1-(9H-purin-6-yl)-piperidin-4-ylamine] as the compound, how does the IC50 read?
A: Its IC50 is 250 nM.

Q: NC1(c2nc3ccc(Cl)cc3[nH]2)CCN(c2ncnc3[nH]ncc23)CC1 [Example 22, 4-(6-chloro-1H-benzoimidazol-2-yl)-1-(1H-pyrazolo[3,4-d]pyrimidin-4-yl)-piperidin-4-ylamine] was tested. Which IC50 did it give?
A: Its IC50 is 770 nM.

Q: With NCC1(c2nc3ccccc3[nH]2)CCN(c2ncnc3[nH]ccc23)CC1 [Example 34D, C-[4-(1H-Benzoimidazol-2-yl)-1-(7H-pyrrolo[2,3-d]pyrimidin-4-yl)-piperidin-4-yl]-methylamine] as the compound, how does the IC50 read?
A: The IC50 was 86 nM.

Q: Which IC50 does the source give for NC1(c2nc3c(-c4ccccc4)cccc3[nH]2)CCN(c2ncnc3[nH]ccc23)CC1 [Example 42, 4-(4-Phenyl-1H-benzoimidazol-2-yl)-1-(7H-pyrrolo[2,3-d]pyrimidin-4-yl)-piperidin-ylamine] here?
A: Its IC50 is under 31 nM.

Q: With NCC1(c2nc3ccccc3[nH]2)CCN(c2ncnc3[nH]cnc23)CC1 [Example 44, (4-(1H-benzo[d]imidazol-2-yl)-1-(9H-purin-6-yl)piperidin-4-yl)methanamine] as the compound, how does the IC50 read?
A: Its IC50 is 120 nM.

Q: NCC1(c2nc3ccccc3[nH]2)CCN(c2ncnc3[nH]cc(Cl)c23)CC1 [Example 45, (4-(1H-benzo[d]imidazol-2-yl)-1-(5-chloro-7H-pyrrolo[2,3-d]pyrimidin-4-yl)piperidin-4-yl)methanamine] was tested. Which IC50 did it give?
A: Its IC50 is 87 nM.

Q: How did the IC50 turn out when NCC1(c2nc3ccccc3[nH]2)CCN(c2ncnc3[nH]nc(Br)c23)CC1 [Example 46, (4-(1H-benzo[d]imidazol-2-yl)-1-(3-bromo-1H-pyrazolo[3,4-d]pyrimidin-4-yl)piperidin-4-yl)methanamine] was run?
A: Its IC50 is 97 nM.

Q: For Cc1c[nH]c2ncnc(N3CCC(CN)(c4nc5ccccc5[nH]4)CC3)c12 [Example 47, (4-(1H-benzo[d]imidazol-2-yl)-1-(5-methyl-7H-pyrrolo[2,3-d]pyrimidin-4-yl)piperidin-4-yl)methanamine], which IC50 is on record?
A: Its IC50 is 170 nM.

Q: NCC1(c2nc3ccccc3[nH]2)CCN(c2ncnc3[nH]cc(Br)c23)CC1 [Example 48, (4-(1H-benzo[d]imidazol-2-yl)-1-(5-bromo-7H-pyrrolo[2,3-d]pyrimidin-4-yl)-piperidin-4-yl)methanamine] was tested. Which IC50 did it give?
A: The IC50 was 210 nM.

Q: For NC1(c2nc3ccc(C(F)(F)F)cc3[nH]2)CCN(c2ncnc3[nH]ccc23)CC1 [Example 50, 1-(7H-Pyrrolo[2,3-d]pyrimidin-4-yl)-4-[6-(trifluoromethyl)-1H-benzimidazol-2-yl]piperidin-4-amine], which IC50 is on record?
A: Its IC50 is 480 nM.

Q: Cc1ccc2nc(C3(N)CCN(c4ncnc5[nH]ccc45)CC3)[nH]c2c1C [Example 51, 4-(6,7-dimethyl-1H-benzimidazol-2-yl)-1-(7H-pyrrolo[2,3-d]pyrimidin-4-yl)piperidin-4-amine] was tested. Which IC50 did it give?
A: The IC50 was 800 nM.

Q: For NC1(c2nc3cc(F)c(Cl)cc3[nH]2)CCN(c2ncnc3[nH]ccc23)CC1 [Example 52, 4-(6-chloro-5-fluoro-1H-benzimidazol-2-yl)-1-(7H-pyrrolo[2,3-d]pyrimidin-4-yl)piperidin-4-amine], which IC50 is on record?
A: Its IC50 is 1300 nM.

Q: For NC1(c2nc3cc(Cl)c(Cl)cc3[nH]2)CCN(c2ncnc3[nH]ccc23)CC1 [Example 53, 4-(5,6-Dichloro-1H-benzoimidazol-2-yl)-1-(7H-pyrrolo[2,3-d]pyrimidin-4-yl)-piperidin-4-ylamine], which IC50 is on record?
A: The IC50 was 1800 nM.

Q: Cn1c(C2(N)CCN(c3ncnc4[nH]ccc34)CC2)nc2ccccc21 [Example 54, 4-(1-methylbenzimidazol-2-yl)-1-(7H-pyrrolo[2,3-d]pyrimidin-4-yl)piperidin-4-amine] was tested. Which IC50 did it give?
A: Its IC50 is over 2600 nM.

Q: With NC1(c2nc3cccnc3[nH]2)CCN(c2ncnc3[nH]ccc23)CC1 [Example 55, 4-(3H-imidazo[5,4-b]pyridin-2-yl)-1-(7H-pyrrolo[2,3-d]pyrimidin-4-yl)piperidin-4-amine] as the compound, how does the IC50 read?
A: Its IC50 is 2900 nM.

Q: Which IC50 does the source give for NC1(c2nc3cc(-n4ccnc4)ccc3[nH]2)CCN(c2ncnc3[nH]ccc23)CC1 [Example 56, 4-(5-imidazol-1-yl-1H-benzimidazol-2-yl)-1-(7H-pyrrolo[2,3-d]pyrimidin-4-yl)piperidin-4-amine] here?
A: The IC50 was 5500 nM.

Q: Which IC50 does the source give for Cc1cc2[nH]c(C3(N)CCN(c4ncnc5[nH]ccc45)CC3)nc2cc1Cl [Example 57, 4-(5-chloro-6-methyl-1H-benzo[d]imidazol-2-yl)-1-(7H-pyrrolo[2,3-d]pyrimidin-4-yl)piperidin-4-amine] here?
A: Its IC50 is over 2100 nM.

Q: With Cc1cc(Cl)cc2nc(C3(N)CCN(c4ncnc5[nH]ccc45)CC3)[nH]c12 [Example 58, 4-(5-Chloro-7-methyl-1H-benzo[d]imidazol-2-yl)-1-(7H-pyrrolo[2,3-d]pyrimidin-4-yl)piperidin-4-amine] as the compound, how does the IC50 read?
A: Its IC50 is 1400 nM.

Q: Which IC50 does the source give for CCN(CC)S(=O)(=O)c1ccc2[nH]c(C3(N)CCN(c4ncnc5[nH]ccc45)CC3)nc2c1 [Example 59, 2-(4-amino-1-(7H-pyrrolo[2,3-d]pyrimidin-4-yl)piperidin-4-yl)-N,N-diethyl-1H-benzo[d]imidazole-5-sulfonamide] here?
A: Its IC50 is 1900 nM.

Q: With CN1CCN(c2ccc3[nH]c(C4(N)CCN(c5ncnc6[nH]ccc56)CC4)nc3c2)CC1 [Example 60, 4-(5-(4-methylpiperazin-1-yl)-1H-benzo[d]imidazol-2-yl)-1-(7H-pyrrlo[2,3-d]pyrimidin-4-yl)piperidin-4-amine] as the compound, how does the IC50 read?
A: Its IC50 is 8600 nM.

Q: NC1(c2nc3cc(OC(F)(F)F)ccc3[nH]2)CCN(c2ncnc3[nH]ccc23)CC1 [Example 61, 1-(7H-Pyrrolo[2,3-d]pyrimidin-4-yl)-4-(5-(trifluoromethoxy)-1H-benzo[d]imidazol-2-yl)piperidin-4-amine] was tested. Which IC50 did it give?
A: The IC50 was 620 nM.

Q: How did the IC50 turn out when CC(C)c1ccc2[nH]c(C3(N)CCN(c4ncnc5[nH]ccc45)CC3)nc2c1 [Example 62, 4(5-isopropyl-1H-benzo[d]imidazol-2-yl)-1-(7H-pyrrolo[2,3-d]pyrimidin-4-yl)piperidin-4-amine] was run?
A: Its IC50 is 580 nM.

Q: With COc1ccc(Oc2ccc3[nH]c(C4(N)CCN(c5ncnc6[nH]ccc56)CC4)nc3c2)cc1 [Example 64, 4-(5-(4-Methoxyphenoxy)-1H-benzo[d]imidazol-2-yl)-1-(7H-pyrrolo[2,3-d]pyrimidin-4-yl)piperidin-4-amine] as the compound, how does the IC50 read?
A: Its IC50 is 380 nM.

Q: Which IC50 does the source give for NCC1(c2nc3cc(Cl)ccc3[nH]2)CCN(c2ncnc3[nH]cnc23)CC1 [Example 66G, (4-(5-chloro-1H-benzo[d]imidazol-2-yl)-1-(9H-purin-6-yl)piperidin-4-yl)methanamine] here?
A: The IC50 was 110 nM.
